# Calls of active or inactive are those of the source. The rule behind the calls is not given here.
# How the values were obtained:
# [1] = Metabolic stability in mouse plasma assessed as compound remaining measured after 30 mins by LC-MS/MS analysis; assay type: ADME, cell-free; conditions: read-out: Stability
# [2] = Cytotoxicity against MDCK cells incubated for 48 hrs by MTT assay; assay type: toxicity, cell-based, Canis lupus familiaris; conditions: dog
# [3] = tested on: Influenza A virus; assay: Antiviral activity against influenza A virus H5N1(A/Duck/Guangdong/212/2004) infected in MDCK cells assessed as inhibition of cytopathic effect incubated for 48 hrs by MTT assay; assay type: functional, organism-based
# [4] = tested on: Influenza A virus; assay: Antiviral activity against influenza A virus H3N2(JX/312) infected in MDCK cells assessed as inhibition of cytopathic effect incubated for 48 hrs by MTT assay; assay type: functional, organism-based
# [5] = tested on: Influenza A virus; assay: Antiviral activity against influenza A virus Flu (B/Lee/1940) infected in MDCK cells assessed as inhibition of cytopathic effect incubated for 48 hrs by MTT assay; assay type: functional, organism-based
# [6] = Distribution coefficient, logD of compound at pH 7.4; assay type: physicochemical; conditions: octanol/water
# [7] = Aqueous solubility of compound; assay type: physicochemical
# [8] = Solubility of the compound in FaSSIF; assay type: physicochemical
# [9] = Solubility of the compound in FeSSIF; assay type: physicochemical
# [10] = Metabolic stability in mouse plasma assessed as compound remaining measured after 60 mins by LC-MS/MS analysis; assay type: ADME, cell-free; conditions: read-out: Stability
# [11] = Metabolic stability in mouse plasma assessed as compound remaining measured after 90 mins by LC-MS/MS analysis; assay type: ADME, cell-free; conditions: read-out: Stability
# [12] = Metabolic stability in mouse plasma assessed as compound remaining measured after 120 mins by LC-MS/MS analysis; assay type: ADME, cell-free; conditions: read-out: Stability
# [13] = Metabolic stability in mouse liver microsomes assessed as half life at 10 uM incubated for 5 mins in presence of NADPH by LC-MS/MS analysis; assay type: ADME, Microsome
# [14] = Metabolic stability in mouse liver microsomes assessed as intrinsic clearance at 10 uM incubated for 5 mins in presence of NADPH by LC-MS/MS analysis; assay type: ADME, Microsome; conditions: read-out: CLH
# [15] = Metabolic stability in mouse liver S9 fraction assessed as half life at 10 uM incubated for 5 mins in presence of NADPH and UDPGA by LC-MS/MS analysis; assay type: ADME, subcellular
# [16] = Metabolic stability in mouse liver S9 fraction assessed as intrinsic clearance at 10 uM incubated for 5 mins in presence of NADPH and UDPGA by LC-MS/MS analysis; assay type: ADME, subcellular; conditions: read-out: CLH
# [17] = Half life in BALB/c nude mouse at 2 mg/kg, iv measured after 24 hrs by LC-MS/MS analysis; assay type: ADME, organism-based; conditions: in vivo
# [18] = Half life in BALB/c nude mouse at 10 mg/kg, po measured after 24 hrs by LC-MS/MS analysis; assay type: ADME, organism-based; conditions: in vivo
# [19] = Half life in BALB/c nude mouse at 15 mg/kg, ip measured after 24 hrs by LC-MS/MS analysis; assay type: ADME, organism-based; conditions: in vivo
# [20] = Tmax in BALB/c nude mouse at 10 mg/kg, po measured after 24 hrs by LC-MS/MS analysis; assay type: ADME, organism-based; conditions: in vivo
# [21] = Tmax in BALB/c nude mouse at 15 mg/kg, ip measured after 24 hrs by LC-MS/MS analysis; assay type: ADME, organism-based; conditions: in vivo
# [22] = Cmax in BALB/c nude mouse at 2 mg/kg, iv measured after 24 hrs by LC-MS/MS analysis; assay type: ADME, organism-based; set-up: time 24 hrs, dose 2 mg/kg, route iv; conditions: in vivo
# [23] = Cmax in BALB/c nude mouse at 10 mg/kg, po measured after 24 hrs by LC-MS/MS analysis; assay type: ADME, organism-based; set-up: dose 10 mg/kg, time 24 hrs, route po; conditions: in vivo
# [24] = Cmax in BALB/c nude mouse at 15 mg/kg, ip measured after 24 hrs by LC-MS/MS analysis; assay type: ADME, organism-based; set-up: time 24 hrs, dose 15 mg/kg, route ip; conditions: in vivo
# [25] = AUC (0 to t) in BALB/c nude mouse at 2 mg/kg, iv measured after 24 hrs by LC-MS/MS analysis; assay type: ADME, organism-based; set-up: time 24 hrs, dose 2 mg/kg, route iv; conditions: in vivo
# [26] = AUC (0 to t) in BALB/c nude mouse at 10 mg/kg, po measured after 24 hrs by LC-MS/MS analysis; assay type: ADME, organism-based; set-up: time 24 hrs, dose 10 mg/kg, route po; conditions: in vivo
# [27] = AUC (0 to t) in BALB/c nude mouse at 15 mg/kg, ip measured after 24 hrs by LC-MS/MS analysis; assay type: ADME, organism-based; set-up: time 24 hrs, dose 15 mg/kg, route ip; conditions: in vivo
# [28] = Clearance in BALB/c nude mouse at 2 mg/kg, iv measured after 24 hrs by LC-MS/MS analysis; assay type: ADME, organism-based; conditions: in vivo
# [29] = Oral bioavailability in BALB/c nude mouse at 10 mg/kg measured after 24 hrs by LC-MS/MS analysis; assay type: ADME, organism-based; conditions: in vivo
# [30] = Bioavailability in BALB/c nude mouse at 15 mg/kg, ip measured after 24 hrs by LC-MS/MS analysis; assay type: ADME, organism-based; conditions: in vivo
# [31] = tested on: Influenza A virus; assay: Antiviral activity against Influenza A A/WSN/33 (H1N1) infected in BALB/c mouse assessed as survival ratio at 15 mg/kg/day, ip administered twice daily for 5 days starting from 1 hrs post infection and measured daily for 14 days relative to control; assay type: functional; conditions: time 14 day
# [32] = tested on: Influenza A virus; assay: Antiviral activity against Influenza A A/WSN/33 (H1N1) infected in BALB/c mouse at 30 mg/kg/day, ip administered twice daily for 5 days starting from 1 hrs post infection and measured daily for 14 days; assay type: functional, organism-based; conditions: time 5.0 day
# [33] = tested on: Influenza A virus; assay: Antiviral activity against Influenza A A/WSN/33 (H1N1) infected in BALB/c mouse assessed as protection against body weight loss administered ip twice daily for 5 days starting from 1 hrs post infection and measured daily for 14 days; assay type: functional, organism-based; conditions: dose 7.5-30 mg/kg/day, time 5.0 day
# [34] = tested on: Influenza A virus; assay: Antiviral activity against influenza A virus A/WSN/33 (H1N1) infected in MDCK cells assessed as effect on nucleoprotein viral protein expression at 20 uM pretreated with cells for 1 hr followed by viral infection; assay type: functional, organism-based
# [35] = tested on: Influenza A virus; assay: Antiviral activity against influenza A virus A/WSN/33 (H1N1) infected in MDCK cells assessed as effect on matrix protein 2 expression at 20 uM pretreated with cells for 1 hr followed by viral infection; assay type: functional, organism-based
# [36] = tested on: Influenza A virus; assay: Antiviral activity against influenza A virus A/WSN/33 (H1N1) infected in MDCK cells assessed as effect on nucleoprotein expression at 20 uM pre-infected with virus for 30 mins followed by 1 hr incubation with cells; assay type: functional, organism-based; conditions: time 1.5 hrs
# [37] = tested on: Influenza A virus; assay: Antiviral activity against influenza A virus A/WSN/33 (H1N1) infected in MDCK cells assessed as effect on matrix protein 2 expression at 20 uM pre-infected with virus for 30 mins followed by 1 hr incubation with cells; assay type: functional, organism-based; conditions: time 1.5 hrs
# [38] = tested on: Influenza A virus; assay: Antiviral activity against influenza A virus A/WSN/33 (H1N1) infected in MDCK cells assessed as reduction in nucleoprotein expression at 20 uM cells pre-infected with virus for 1 hr followed by compound addition; assay type: functional, organism-based
# [39] = tested on: Influenza A virus; assay: Antiviral activity against influenza A virus A/WSN/33 (H1N1) infected in MDCK cells assessed as reduction in matrix protein 2 expression at 20 uM cells pre-infected with virus for 1 hr followed by compound addition; assay type: functional, organism-based
# [40] = tested on: Influenza A virus; assay: Antiviral activity against influenza A virus A/WSN/33 (H1N1) infected in MDCK cells assessed as reduction in PB2 mRNA level at 20 uM measured upto 10 hrs after viral infection by RT-PCR analysis; assay type: functional, organism-based
# [41] = tested on: Influenza A virus; assay: Antiviral activity against influenza A virus A/WSN/33 (H1N1) infected in MDCK cells assessed as reduction in PB2 mRNA level at 20 uM measured after 2 to 5 hrs after viral infection by RT-PCR analysis; assay type: functional, organism-based; conditions: time 2-5 hrs
# [42] = tested on: Influenza A virus; assay: Antiviral activity against influenza A virus A/WSN/33 (H1N1) infected in MDCK cells assessed as reduction in PB2 mRNA level at 20 uM measured after 5 to 8 hrs after viral infection by RT-PCR analysis; assay type: functional, organism-based; conditions: time 5-8 hrs
# [43] = tested on: Erythrocyte; assay: Inhibition of hemagglutination in chicken RBC cells infected with Influenza A virus A/WSN/33 (H1N1) assessed as reduction in virus-induced agglutination of erythrocytes at 0.31 to 81 uM pretreated with H5 antigen for 30 mins followed by addition of chicken erythrocytes measured after 1 hr; assay type: functional, cell-based; conditions: Gallus gallus, dose 0.31-81 µM, time 1.5 hrs
# [44] = tested on: Influenza A virus; assay: Antiviral activity against influenza A virus A/WSN/33 (H1N1) infected in MDCK cells assessed as reduction of ratio of pPOLI-Fluc to Renilla luciferase activity at 2.5 to 10 uM pre-infected with virus for 1 hr followed by compound addition and measured after 24 hrs post infection; assay type: functional, organism-based; conditions: dose 2.5-10 µM
# [45] = tested on: Influenza A virus; assay: Antiviral activity against influenza A virus A/WSN/33 (H1N1) infected in MDCK cells assessed as increase in inhibition of luciferase activity pre-infected with virus for 1 hr followed by compound addition and measured after 24 hrs post infection; assay type: functional, organism-based; conditions: dose <= 6.0 nM
# [46] = tested on: Influenza A virus; assay: Antiviral activity against influenza A virus A/WSN/33 (H1N1) infected in MDCK cells assessed as inhibition of cRNA synthesis pre-infected with virus for 1 hr followed by compound addition and measured after 24 hrs post infection by RT-qPCR analysis; assay type: functional, organism-based; conditions: dose 2.5-10 µM
# [47] = in vitro; conditions: dog, MDCK cells
smiles,measurement,setting,value
CCCOC(=O)[C@@H]1Cc2cc(O)c(O)cc2[C@H](Cc2ccc(O)c(O)c2)N1C(=O)c1ccccc1Cl,remaining at 0.5 h,[1],100%
same,CC50 at 48 h,[2],99500 nM
same,EC50,[3],1120 nM
same,EC50,[4],760 nM
same,EC50,[5],430 nM
same,logD,[6],3.25
same,solubility,[7],1.62 µM
same,solubility,[8],78.2 µM
same,solubility,[9],75.3 µM
same,remaining at 1 h,[10],95.6%
same,remaining at 1.5 h,[11],91.5%
same,remaining at 2 h,[12],89.8%
same,half-life at 10 µM,[13],9.2 min
same,microsomal CLint at 10 µM,[14],134 µL/min/mg
same,half-life at 10 µM,[15],103 min
same,microsomal CLint at 10 µM,[16],9.57 µL/min/mg
same,half-life,[17],19.8 min
same,half-life,[18],49.2 min
same,half-life,[19],64.2 min
same,Tmax,[20],31.2 min
same,Tmax,[21],27 min
same,Cmax,[22],1590 ng/mL
same,Cmax,[23],92.2 ng/mL
same,Cmax,[24],890 ng/mL
same,AUC(0-t) at 24 h,[25],536 ng·h/mL
same,AUC(0-t) at 24 h,[26],164 ng·h/mL
same,AUC(0-t) at 24 h,[27],791 ng·h/mL
same,clearance,[28],53.8 mL/min/kg
same,bioavailability,[29],6.13%
same,bioavailability,[30],29.5%
same,Activity,[31],60%
same,Activity,[32],Active
same,Activity,[33],Dose-Dependent Effect
same,Activity,[34],inactive
same,Activity,[35],inactive
same,Activity,[36],inactive
same,Activity,[37],inactive
same,Activity,[38],Active
same,Activity,[39],Active
same,Activity,[40],Active
same,Activity,[41],Active
same,Activity,[42],Active
same,inhibition,[43],inactive
same,Activity,[44],Active
same,Activity,[45],Dose-Dependent Effect
same,Activity,[46],Dose-Dependent Effect
same,selectivity ratio,[47],113

# Reference: ChEMBL document CHEMBL5316264, “Identification of N- and C-3-Modified Laudanosoline Derivatives as Novel Influenza PAN Endonuclease Inhibitors” (J Med Chem, 2023)
